Data taken from patent US9233915B2, “Polyunsaturated fatty acid monoglycerides, derivatives, and uses thereof” (SCF PHARMA INC., priority 2007, dated 2016).

How the values were obtained:
[1] = tested on: HCT-116 cells; assay: in vivo tumor xenograft, HCT-116 in CD-1 nude mice; details: per os 618 mg/kg daily from the day after the tumor reach; vs control (corn oil)
Method: In vivo tumor xenograft experiments. Male and female CD-1 nude mice were obtained from Charles River Laboratories (Montreal, QC, Canada). All studies involving mice were approved by the institutional animal care committee. Human A549 or HCT-116 xenografts were established in 4-week-old CD-1 nude mice. Mice were subcutaneously inoculated with 0.2 ml of a solution of 1×10^6 A549 or HCT-116 cells on the right flank. Mice were randomly assigned into 2 groups, control (untreated) and compound 1, 5 or 6 treated (n=6 per group). […] Tumor volumes (V) were calculated using the formula: V=(a×b2)/2, where “a” is the largest superficial diameter and “b” the smallest.

[2] = human, in vivo
Method: Controlled amount of boiled pasta was eaten after the 4 h time point. An initial blood sample (400 μl) was collected using a lancet at a fingertip into heparin tubes followed by samples at 1, 2, 3, 4, 5, 6, 7 and 8 hour after ingestion. Plasma was separated and immediately analysed for fatty acid composition.
The relative bioavailability of fatty acids from composition 2 compared to fish oil is calculated with the formula:
The AUC (calculates area under the curve for concentration vs. time data) is calculated using linear trapezoidal rule. […] The relative bioavailability of compound 1 and compound 5 is calculated with the same formula:

[3] = tested on: HCT116 human colon cancer cell line; assay: cell growth assay (trypan blue cell count) on HCT116; format: cell-based; details: HCT-116, 48 h, read-out: growth inhibition of the cancer cells
Method: (§1) The A549 and HCT-116 cells were maintained in RPMI 1640 or McCoy's 5A (Wisent, St-Bruno, QC, Canada) containing 10% FBS and 10 units/ml penicillin, 100 μg/ml streptomycin. Cells were grown in a 5% CO2 incubator at 37° C. Cells were untreated or treated with SCF compounds
(§2) A predefined number of either A549 or HCT-116 cells were allowed to grow in 24 wells plates (1×10^4 cells/well) for 3 days until cells reached 70% confluence. Then, cells were starved in RPMI or McCoy's 5A medium without FBS for 8 h. Then, the culture medium was replaced with RPMI or McCoy's 5A+0.2% FBS and 3 μM of test compounds were added to each well. Culture media were changed every 24 h and cells were treated for 48 h. After 48, the medium was removed from the culture plates and 0.05% trypsin-EDTA was used to detach the cells from the surface of the culture plates. The harvested cells were counted, both the viable and dead ones, using a Countess Automated Cell Counter (Invitrogen Inc.). Briefly, for each condition an appropriated cell dilution was prepared from the harvested cells and an aliquot was mixed with an equal volume of 0.4% trypan blue, and 10 μl was transferred into each side of a Countess™ chamber slide. All concentrations tested were performed in triplicata and were representative of 5 independent experiments.

[4] = tested on: A549 human lung cancer cell line; assay: cell growth assay (trypan blue cell count) on A549; format: cell-based; details: 48 h, read-out: growth inhibition of the cancer cells
Method: as §1, §2

[5] = tested on: A549 cells; assay: in vivo tumor xenograft, A549 in CD-1 nude mice; details: per os 618 mg/kg daily from the day after cell inoculation; vs control (corn oil)
Method: In vivo tumor xenograft experiments. Male and female CD-1 nude mice were obtained from Charles River Laboratories (Montreal, QC, Canada). All studies involving mice were approved by the institutional animal care committee. Human A549 or HCT-116 xenografts were established in 4-week-old CD-1 nude mice. Mice were subcutaneously inoculated with 0.2 ml of a solution of 1×10^6 A549 or HCT-116 cells on the right flank. Mice were randomly assigned into 2 groups, control (untreated) and compound 1, 5 or 6 treated (n=6 per group). Compound 1, 5 or 6 were administrated per os (618 mg/kg) daily following cell inoculation. Tumor volumes (V) were calculated using the formula: V=(a×b2)/2, where “a” is the largest superficial diameter and “b” the smallest.

CC/C=C\C/C=C\C/C=C\C/C=C\C/C=C\CCCCCC(=O)OCC(O)CO (stereo not shown) [compound 1]
tumor progression (tumor volume) [1]: tumor progression was immediately stopped and tumor volume significantly decrease over time
relative bioavailability of compound 1 compared to compound 5 [2]: 2.20
inhibition at 3 µM [3]: > 50%

CC/C=C\C/C=C\C/C=C\C/C=C\C/C=C\C/C=C\CCC(=O)OCC(O)CO (stereo not shown) [compound 5]
inhibition at 3 µM [4]: > 50%
tumor progression (tumor volume) [5]: tumor progression was significantly reduced

CC/C=C\C/C=C\C/C=C\C/C=C\C/C=C\CCCC(=O)OCC(O)CO (stereo not shown) [compound 6]
tumor progression (tumor volume) [1]: tumor progression was immediately stopped and tumor volume slightly decrease over time
inhibition at 3 µM [3]: > 50%
